Test results published in patent US9382261B2, “Substituted quinazolinones as HCV inhibitors” (Janssen R&D Ireland, priority 2011, dated 2016).

What was measured:
[1] = Counterscreen Huh7-CMV-Luc; assay type: cell-based; settings: human; counterscreen cell line Huh7-CMV-Luc
Source text: (§1) The in vitro antiviral activity against HCV of the compounds of formula I can be tested in a cellular HCV replicon system based on Lohmann et al. (1999) Science 285:110-113, with the further modifications described by Krieger et al. (2001) Journal of Virology 75: 4614-4624 and Lohmann et al. (2003) Journal of Virology 77: 3007-3019 for genotype 1b and by Yi et al. (2004) Journal of Virology 78: 7904-7915 for genotype 1a (incorporated herein by reference), which is further exemplified in the examples section. This model, while not a complete infection model for HCV, is widely accepted as the most robust and efficient model of autonomous HCV RNA replication currently available. It will be appreciated that it is important to distinguish between compounds that specifically interfere with HCV functions from those that exert cytotoxic or cytostatic effects in the HCV replicon model, and as a consequence cause a decrease in HCV RNA or linked reporter enzyme concentration. Assays are known in the field for the evaluation of cellular cytotoxicity based for example on the activity of mitochondrial enzymes using fluorogenic redox dyes such as resazurin. Furthermore, cellular counter screens exist for the evaluation of non-selective inhibition of linked reporter gene activity, such as firefly luciferase. Appropriate cell types can be equipped by stable transfection with a luciferase reporter gene whose expression is dependent on a constitutively active gene promoter, and such cells can be used as a counter-screen to eliminate non-selective inhibitors.
(§2) Counterscreen cell lines included a Huh-7 hepatoma cell line containing a human cytomegalovirus major immediate-early promoter-Luc construct (Huh7-CMV-Luc) and an MT4 T-cell line containing a long terminal repeat-Luc reporter (MT4-LTR-Luc).

[2] = Counterscreen MT4-LTR-Luc; assay type: cell-based; settings: human; counterscreen cell line MT4-LTR-Luc
Source text: as §1, §2

[3] = tested on: HCV replicon type 1b in Huh-Luc cells; assay: HCV replicon assay, stable transfection (Huh-7 luc/neo, luciferase readout); assay type: cell-based, HCV type 1b; settings: Hepatitis C virus, Huh-7, 72 h, stably transfected Huh-Luc cells, genotype 1b, three days incubation, average if tested more than once, read-out: HCV-REP-HUH7LUC_EC50
Source text: The compounds of formula (I) were examined for inhibitory activity in the HCV replicon. This cellular assay is based on a bicistronic expression construct, as described by Lohmann et al. (Science (1999) 285: 110-113; Journal of Virology (2003) 77: 3007-3019) with modifications described by Krieger et al. (Journal of Virology (2001) 75: 4614-4624), and Lohmann et al. (Journal of Virology (2003) 77: 3007-3019) for genotype 1b and by Yi et al. (Journal of Virology (2004) 78: 7904-7915) for genotype 1a, in a multi-target screening strategy.
The method was as follows. The assay utilized the stably transfected cell line Huh-7 luc/neo (hereafter referred to as Huh-Luc). This cell line harbors an RNA encoding a bicistronic expression construct comprising the wild type NS3-NS5B regions of HCV type 1b translated from an Internal Ribosome Entry Site (IRES) from encephalomyocarditis virus (EMCV), preceded by a reporter portion (FfL-luciferase), and a selectable marker portion (neoR, neomycine phosphotransferase). The construct is flanked by 5′ and 3′ NTRs (non-translated regions) from HCV type 1b. Continued culture of the replicon cells in the presence of G418 (neoR) is dependent on the replication of the HCV RNA. The stably transfected replicon cells that replicate HCV RNA autonomously and to high levels, encoding inter alia luciferase, were used for screening the antiviral compounds.
The replicon cells were plated in 384 well plates in the presence of the test and control compounds which were added in various concentrations. Following an incubation of three days, HCV replication was measured by assaying luciferase activity (using standard luciferase assay substrates and reagents and a Perkin Elmer ViewLux™ ultraHTS microplate imager). Replicon cells in the control cultures have high luciferase expression in the absence of any inhibitor. The inhibitory activity of the compound was monitored on the Huh-Luc cells, enabling a dose-response curve for each test compound. EC50 values were then calculated, which represent the amount of compound required to decrease the level of detected luciferase activity by 50%, or more specifically, to reduce the ability of the genetically linked HCV replicon RNA to replicate.
Where a compound of formula (I) was tested more than once in the replicon assay, the average of all test results is given in this Table 1.

[4] = tested on: HCV subgenomic replicon genotype 1b Con1; assay: HCV replicon assay, transient transfection, genotype 1b Con1 (Huh-7 lunet, luciferase readout); assay type: cell-based, HCV genotype 1b Con1; settings: Hepatitis C virus, 48 h, Huh-7 lunet transiently transfected, genotype 1b Con1, two days incubation
Source text: (§3) In a transient set-up, a Huh-7 lunet hepatoma cell line was transiently transfected with an autonomously replicating RNA encoding a bi-cistronic expression construct. This construct comprises a firefly luciferase reporter gene preceding the NS3-NS5B subgenomic region of HCV (genotype 1a H77 or 1b Con1). Translation of the HCV subgenomic region is mediated by an internal ribosome entry site of encephalomyocarditis virus. The construct is furthermore flanked by 5′ and 3′ untranslated regions of HCV (genotype 1a H77 or 1b Con1, respectively), which allow for replication of the RNA.
(§4) Cells were plated in 384 well plates in the presence of test and control compounds, which were added in various concentrations. Following an incubation of two days, replication of the HCV subgenomic replicon RNA was measured by assaying luciferase activity (using standard luciferase assay substrates and reagents and a Perkin Elmer ViewLux™ ultraHTS microplate imager). HCV subgenomic replicon containing cells in the control cultures have high luciferase expression in the absence of any inhibitor. The inhibitory activity of the compound was monitored, enabling a dose-response curve for each test compound. EC50 values were then calculated, which represent the amount of compound required to decrease the level of detected luciferase activity by 50%, or more specifically, to reduce the ability of the genetically linked HCV subgenomic RNA to replicate.

[5] = tested on: HCV subgenomic replicon genotype 1a H77; assay: HCV replicon assay, transient transfection, genotype 1a H77 (Huh-7 lunet, luciferase readout); assay type: cell-based, HCV genotype 1a H77; settings: Hepatitis C virus, 48 h, Huh-7 lunet transiently transfected, genotype 1a H77, two days incubation
Source text: as §3, §4

Work on COC(=O)N[C@H](C(=O)N1CC2(C[C@H]1c1ncc(-c3ccc4cc(-c5ccc6c(=O)[nH]c([C@@H]7CCCN7C(=O)[C@@H](NC(=O)OC)C(C)C)nc6c5)ccc4c3)[nH]1)OCCO2)C(C)C [Compound 5] yielded a CC50 [1] greater than 980 nM, a CC50 [2] greater than 980 nM and an EC50 [3] of 0.025 nM. For the same compound, the EC50 [4] was 0.025 nM and the EC50 [5] was 0.677 nM.

In the case of COC(=O)N[C@H](C(=O)N1[C@@H]2C[C@@H]2C[C@H]1c1ncc(-c2ccc3cc(-c4ccc5c(=O)[nH]c([C@@H]6C[C@H]7C[C@H]7N6C(=O)[C@@H](NC(=O)OC)C(C)C)nc5c4)ccc3c2)[nH]1)C(C)C [Compound 3], the CC50 [1] is reported as greater than 980 nM, the CC50 [2] is reported as greater than 980 nM and the EC50 [3] is reported as 0.017 nM. The EC50 [4] was 0.012 nM and the EC50 [5] was 0.16 nM.

For COC(=O)N[C@H](C(=O)N1CCC[C@H]1c1nc2cc(-c3ccc4cc(-c5cnc([C@@H]6C[C@H]7C[C@H]7N6C(=O)[C@@H](NC(=O)OC)C(C)C)[nH]5)ccc4c3)ccc2c(=O)[nH]1)C(C)C [Compound 10], the CC50 [1] was greater than 980 nM, the CC50 [2] was greater than 980 nM and the EC50 [3] was 0.006 nM. The EC50 [4] was 0.005 nM and the EC50 [5] was 0.341 nM.

COC(=O)N[C@H](C(=O)N1CC2(C[C@H]1c1nc3cc(-c4ccc5cc(-c6cnc([C@@H]7C[C@H]8C[C@H]8N7C(=O)[C@@H](NC(=O)OC)C(C)C)[nH]6)ccc5c4)ccc3c(=O)[nH]1)OCCCO2)C(C)C [Compound 1] showed a CC50 [1] greater than 980 nM, a CC50 [2] greater than 980 nM and an EC50 [3] of 0.026 nM. The EC50 [4] was 0.029 nM and the EC50 [5] was 0.79 nM.

For COC(=O)N[C@H](C(=O)N1[C@@H]2C[C@@H]2C[C@H]1c1ncc(-c2ccc3cc(-c4ccc5c(=O)[nH]c([C@@H]6C[C@@H]7CCCC[C@@H]7N6C(=O)[C@@H](NC(=O)OC)C(C)C)nc5c4)ccc3c2)[nH]1)C(C)C [Compound 7], the CC50 [1] was greater than 980 nM, the CC50 [2] was greater than 980 nM and the EC50 [3] was 0.008 nM. It also gave an EC50 [4] of 0.006 nM and an EC50 [5] of 0.546 nM.

COC(=O)N[C@H](C(=O)N1CC2(CC2)C[C@H]1c1ncc(-c2ccc3cc(-c4ccc5c(=O)[nH]c([C@@H]6C[C@@H]7CCCC[C@@H]7N6C(=O)[C@@H](NC(=O)OC)C(C)C)nc5c4)ccc3c2)[nH]1)C(C)C [Compound 13] showed a CC50 [1] greater than 980 nM, a CC50 [2] greater than 980 nM and an EC50 [3] of 0.006 nM. For the same compound, the EC50 [4] was 0.009 nM and the EC50 [5] was 0.36 nM.

COC(=O)N[C@H](C(=O)N1CCC[C@H]1c1ncc(-c2ccc3cc(-c4ccc5c(=O)[nH]c([C@@H]6C[C@@H]7CCCC[C@@H]7N6C(=O)[C@@H](NC(=O)OC)C(C)C)nc5c4)ccc3c2)[nH]1)C(C)C [Compound 15] gave a CC50 [1] greater than 980 nM, a CC50 [2] greater than 980 nM and an EC50 [3] of 0.006 nM. For the same compound, the EC50 [4] was 0.007 nM and the EC50 [5] was 0.496 nM.

Work on COC(=O)N[C@H](C(=O)N1CC2(C[C@H]1c1ncc(-c3ccc4cc(-c5ccc6c(=O)[nH]c([C@@H]7CC8(CN7C(=O)[C@@H](NC(=O)OC)C(C)C)OCCO8)nc6c5)ccc4c3)[nH]1)OCCO2)C(C)C [Compound 2] yielded a CC50 [1] greater than 980 nM, a CC50 [2] greater than 980 nM and an EC50 [3] of 0.018 nM. For the same compound, the EC50 [4] was 0.033 nM and the EC50 [5] was 1.4 nM.

COC(=O)N[C@H](C(=O)N1[C@@H]2CC[C@@H](C2)[C@H]1c1nc2cc(-c3ccc4cc(-c5cnc([C@@H]6C[C@H]7C[C@H]7N6C(=O)[C@@H](NC(=O)OC)C(C)C)[nH]5)ccc4c3)ccc2c(=O)[nH]1)C(C)C [Compound 12] showed a CC50 [1] greater than 980 nM, a CC50 [2] greater than 980 nM and an EC50 [3] of 0.27 nM. The EC50 [4] was 0.109 nM and the EC50 [5] was 12.5 nM.

In the case of COC(=O)N[C@H](C(=O)N1CC2(C[C@H]1c1ncc(-c3ccc4cc(-c5ccc6c(=O)[nH]c([C@@H]7C[C@H]8C[C@H]8N7C(=O)[C@@H](NC(=O)OC)C(C)C)nc6c5)ccc4c3)[nH]1)OCCO2)C(C)C [Compound 4], the CC50 [1] is reported as greater than 980 nM, the CC50 [2] is reported as greater than 980 nM and the EC50 [3] is reported as 0.008 nM. The EC50 [4] was 0.013 nM and the EC50 [5] was 0.103 nM.

For COC(=O)N[C@H](C(=O)N1CC2(C[C@H]1c1ncc(-c3ccc4cc(-c5ccc6c(=O)[nH]c([C@@H]7C[C@@H]8CCCC[C@@H]8N7C(=O)[C@@H](NC(=O)OC)C(C)C)nc6c5)ccc4c3)[nH]1)OCCO2)C(C)C [Compound 9], the CC50 [1] was greater than 980 nM, the CC50 [2] was greater than 980 nM and the EC50 [3] was 0.008 nM. The EC50 [4] was 0.006 nM and the EC50 [5] was 0.216 nM.

Compound COC(=O)N[C@H](C(=O)N1[C@H](c2ncc(-c3ccc4cc(-c5ccc6c(=O)[nH]c([C@@H]7C[C@@H]8CCCC[C@@H]8N7C(=O)[C@@H](NC(=O)OC)C(C)C)nc6c5)ccc4c3)[nH]2)C[C@@H]2CCCC[C@@H]21)C(C)C [Compound 14] has a CC50 [1] greater than 980 nM, a CC50 [2] greater than 980 nM and an EC50 [3] of 0.022 nM. For the same compound, the EC50 [4] was 0.021 nM and the EC50 [5] was 0.136 nM.
